Test results from PMC11352945, “Anticancer Activity of Benzo[a]phenoxazine Compounds Promoting Lysosomal Dysfunction” (Cells, 2024).

How the values were obtained:
HCT116 cells = test: Sulforhodamine B (SRB) cell viability assay, HCT116; format: cell-based; conditions: Homo sapiens, HCT-116, CRC cell line, 48 h, read-out: IC50 (μM) ± SD, HCT116
Protocol: (§1) The cells were allowed to adhere overnight, from 12 h to 18 h, and then treated with increasing concentrations of each compound, C9, A36, and A42 (0.125 μM, 0.25 μM, 0.5 μM, 1 μM, 2.5 μM, and 5 μM), in their respective culture mediums for 48 h. In addition to a negative control that consisted only of cells and growth medium, a negative control containing the highest concentration of the solvent in which the compound was dissolved (DMSO 0.1%) was also used. The SRB assay was performed according to Marques et al.. The IC50 values were obtained using GraphPad Prism version 8.2.1 through the application of a sigmoidal dose–response nonlinear regression, after logarithmic transformation. The selectivity index was determined by dividing the IC50 value of the non-neoplastic BJ-5ta cell line by the IC50 value of the cancer cell lines (IC50 BJ-5ta/IC50 cancer cell line); furthermore, for the CRC model, a second selectivity index was also determined using the non-neoplastic NCM460 cell line (IC50 NCM460/IC50 CRC cell line). According to the results of the selectivity index, the cell line with the highest selectivity value for each of the models, CRC and breast, was selected for subsequent characterization.
(§2) Three CRC-derived cell lines, SW480 (KRAS^G12V), HCT116 (KRAS^G13D), and RKO (BRAF^V600E), harboring somatic mutations on KRAS or BRAF, and two breast-cancer-derived cell lines, MDA-MB-231 (basal like) and MCF7 (luminal A subtype), together with two non-neoplastic cell lines, NCM460 (normal colon mucosal epithelial cell line) and BJ-5ta (normal foreskin fibroblast cell line), were used to study the activity and selectivity of the three new benzo[a]phenoxazine compounds, C9, A36, and A42. All cell lines were treated with a range of drug concentrations (0.125 μM, 0.25 μM, 0.5 μM, 1 μM, 2.5 μM, and 5 μM) for 48 h, and the effect on cell viability was assessed using a sulforhodamine B assay (SRB) (Figure 2). […] In addition, the selectivity index was determined using the BJ-5ta cell line as a reference, as well as the NCM460 cell line for the CRC model (Table 1).

MCF7 cells [1] = test: Sulforhodamine B (SRB) cell viability assay, MCF7; format: cell-based; conditions: Homo sapiens, breast cancer cell line, 48 h, read-out: IC50 (μM) ± SD, MCF7
Protocol: as §1, §2

MDA-MB-231 cells = test: Sulforhodamine B (SRB) cell viability assay, MDA-MB-231; format: cell-based, human
Protocol: as §1
Three CRC-derived cell lines, SW480 (KRAS^G12V), HCT116 (KRAS^G13D), and RKO (BRAF^V600E), harboring somatic mutations on KRAS or BRAF, and two breast-cancer-derived cell lines, MDA-MB-231 (basal like) and MCF7 (luminal A subtype), together with two non-neoplastic cell lines, NCM460 (normal colon mucosal epithelial cell line) and BJ-5ta (normal foreskin fibroblast cell line), were used to study the activity and selectivity of the three new benzo[a]phenoxazine compounds, C9, A36, and A42. All cell lines were treated with a range of drug concentrations (0.125 μM, 0.25 μM, 0.5 μM, 1 μM, 2.5 μM, and 5 μM) for 48 h, and the effect on cell viability was assessed using a sulforhodamine B assay (SRB) (Figure 2). The results were used to determine the IC50 value of each compound for all the cell lines (Table 1). In addition, the selectivity index was determined using the BJ-5ta cell line as a reference, as well as the NCM460 cell line for the CRC model (Table 1).

MCF7 cells [2] = test: Annexin V/PI assay (flow cytometry), MCF7; format: cell-based, human; conditions: MCF7, 2 × IC50 and 4 × IC50, 48 h
Protocol: RKO and MCF7 cells were seeded in 12-well plates at a density of 1 × 10^5 cells/mL. After 24 h, the cells were treated with C9, A36, and A42 at 2 × IC50 and 4 × IC50 concentrations or 0.1% DMSO (vehicle). Untreated cells were used as controls. After 48 h, floating and adherent cells were collected. The cells were resuspended in […] of binding buffer and treated for 15 min in the dark with 5 μL of Annexin V-FITC (Detection Kit-ab14085) and 5 μL of Propidium Iodide (50 μg/mL). The samples were subjected to flow cytometry analysis, PI fluorescence was detected using the ECD-A channel, and Annexin V fluorescence was detected using the FITC-A channel.
One of the main goals of clinical oncology is the development of compounds and treatments capable of selectively eliminating cancer cells. In this sense, we next evaluated the capability of the compounds to induce cell death in both cell lines. For this, we performed a flow cytometry analysis using annexin V-FITC and propidium iodide PI double staining. The conjugation of these two probes allowed for the discrimination of viable (negative for both), early apoptotic (annexin + and PI−), late apoptotic (annexin+ and PI+), and necrotic (annexin− and PI+) cells. […] Both flouting and attached cells were harvested and double stained.

RKO cells = test: Intracellular pH evaluation (BCECF-AM, flow cytometry), RKO; format: cell-based, human; conditions: 2 × IC50 and 4 × IC50, 48 h
Protocol: (§3) Evaluations of the intracellular pHs (pHi) of the RKO and MCF7 cells were performed through a flow cytometry optimized protocol using the pH-sensitive probe BCECF-AM. RKO and MCF7 cells were seeded in 12-well plates at a density of 1 × 10^5 cells/mL. After 24 h, the cells were treated with the compounds C9, A36, and A42 at 2 × IC50 and 4 × IC50 concentrations or 0.1% DMSO (vehicle). As a control, untreated cells were used. Attached and floating cells were collected, washed, and then resuspended in Hank’s balanced salt solution (HBSS) after a 48 h treatment period. After that, the cells were stained with 1 μM of BCECF-AM for 30 min at 37 °C. The samples were analyzed by flow cytometry. The FITC-A and PE-A channels were used to detect the fluorescence mean of BCECF-AM.
(§4) To further support LMP’s role in cell death induction, we investigated the effects of the compounds on intracellular pH (pHi), as LMP induction is associated with an increase in cytosolic proton levels and, as a result, a reduction in intracellular pH [67, 68, 69]. We used the dual-emission ratiometric pH-sensitive probe BCECF-AM, which emits fluorescence based on pHi. The result of acidification was shown by a decrease in the fluorescence ratio between BCECF-AM green (FITC-FL1) and red fluorescence (PE-FL2) (FL1/FL2). […]

MCF7 cells [3] = test: Intracellular pH evaluation (BCECF-AM, flow cytometry), MCF7; format: cell-based, human; conditions: MCF7, 2 × IC50 and 4 × IC50, 48 h
Protocol: as §3, §4

MCF7 cells [4] = test: ROS levels (DHE, flow cytometry), MCF7; format: cell-based, human; conditions: MCF7, 2 × IC50 and 4 × IC50, 48 h
Protocol: The RKO and MCF7 ROS levels were evaluated through flow cytometry using the dihydroethidium (DHE) probe. RKO and MCF7 cells were seeded in 12-well plates at a density of 1 × 10^5 cells/mL. After 24 h, the cells were treated with the compounds C9, A36, and A42 at 2 × IC50 and 4 × IC50 concentrations or 0.1% DMSO (vehicle). As a control, untreated cells were used. The cells were collected after 48 h of treatment, washed with PBS 1×, and stained for 30 min at 37 °C in the dark using 0.5 μM DHE. The DHE mean fluorescence intensity was analyzed by flow cytometry using the PE-A channel.
Since ROS generation is reported to precede LMP and cell death, and in view of reports showing that some compounds of this family increase intracellular ROS levels under certain circumstances, we also investigated whether C9, A36, and A42 had any effects in this regard.

SMILES: CCCNc1cc2oc3cc(=NCC)c(C)cc-3nc2c2ccccc12 [C9]
- IC50 (HCT116 cells): 1.64 ± 0.09 µM
- IC50 (MCF7 cells [1]): 0.84 ± 0.06 µM
- IC50 (MDA-MB-231 cells; Homo sapiens, MDA-MB-231, breast cancer cell line, 48 h, SRB, read-out: IC50 (μM) ± SD, MDA-MB-231): 1.19 ± 0.05 µM
- Selectivity Index Cell Line IC50/BJ-5ta IC50 (MDA-MB-231 cells; MDA-MB-231 versus BJ-5ta): 2.14
- Cell death induction (Annexin V/PI) (MCF7 cells [2]): most powerful compounds
- Intracellular acidification (BCECF-AM FL1/FL2 ratio) (RKO cells): most pronounced effect
- Intracellular acidification (BCECF-AM FL1/FL2 ratio) (MCF7 cells [3]): most pronounced effect
- ROS levels (fluorescence mean of DHE) (MCF7 cells [4]): higher intensity
